Several values for one entry are separate records, joined by “and”; a condition that tells them apart may be missing. Equal entries are not always repeated. Toxic doses and inconclusive results are not listed.
System: P388 leukemia ip, CD2F1 mice, survival T/C
Test: NCI In Vivo Anticancer Drug Screen. Data for tumor model P388 Leukemia (intraperitoneal) in CD2F1 (CDF1) mice
Settings: endpoint: median survival time, higher = longer survival
In short: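 Mice carrying the transplanted tumor received test compound or vehicle. Survival was recorded in each group, and the value is the treated-group measurement divided by that of the vehicle-treated control group.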

[1] = dose: 50.0 mg/kg/injection, schedule: Q01DX005 (ip), vehicle: saline
[2] = dose: 50.0 mg/kg/injection, schedule: Q01DX005 (ip), vehicle: Klucel (hydroxypropylcellulose) (HPC)
[3] = dose: 100.0 mg/kg/injection, schedule: Q01DX005 (ip), vehicle: Klucel (hydroxypropylcellulose) (HPC)

With `CC1=CC(=N\S(=O)(=O)c2ccccc2)/c2ccccc2/C1=N/S(=O)(=O)c1ccccc1` the T/C (dose: 12.5 mg/kg/injection, schedule: Q01DX001 (ip), vehicle: saline with Tween-80) was 104 % of control, the T/C (dose: 25.0 mg/kg/injection, schedule: Q01DX001 (ip), vehicle: saline with Tween-80) was 100 % of control and the T/C (dose: 50.0 mg/kg/injection, schedule: Q01DX001 (ip), vehicle: saline with Tween-80) was 95 % of control.
For `CN1CCC(CCl)C(c2ccccc2)C1` (configuration not stated), the T/C (dose: 12.5 mg/kg/injection, schedule: Q01DX005 (ip), vehicle: saline) was 100 % of control, the T/C (dose: 25.0 mg/kg/injection, schedule: Q01DX005 (ip), vehicle: saline) was 100 % of control and the T/C [1] was 107 % of control.
For `OCCOCCSCCOCCO`, the T/C [1] was 100 % of control, the T/C (dose: 100.0 mg/kg/injection, schedule: Q01DX005 (ip), vehicle: saline) was 100 % of control and the T/C (dose: 200.0 mg/kg/injection, schedule: Q01DX005 (ip), vehicle: saline) was 102 % of control.
`CCOC(=O)c1ccc(NC(=S)Nc2ccc(C(=O)OCC)cc2)cc1` was tested, and the T/C (dose: 100.0 mg/kg/injection, schedule: Q01DX009 (ip), vehicle: saline with Tween-80) was 90 % of control, the T/C (dose: 200.0 mg/kg/injection, schedule: Q01DX009 (ip), vehicle: saline with Tween-80) was 90 % of control and the T/C (dose: 400.0 mg/kg/injection, schedule: Q01DX009 (ip), vehicle: saline with Tween-80) was 90 % of control.
`CC(=O)O[C@H]1/C=C(\C)[C@@H](O)C/C=C(\C)CC(OC(=O)c2ccccc2)[C@H]1C(C)C` (some centres not stated) was tested, and the T/C (dose: 12.5 mg/kg/injection, schedule: Q01DX005 (ip), vehicle: Klucel (hydroxypropylcellulose) (HPC)) was 98 % of control, the T/C (dose: 25.0 mg/kg/injection, schedule: Q01DX005 (ip), vehicle: Klucel (hydroxypropylcellulose) (HPC)) was 98 % of control and the T/C [2] was 100 % of control. For the same compound, the T/C [3] was 95 % of control.
With `CC(=O)c1c(O)c(C)c(O)c2c1OC1=Cc3onc(C)c3C(=O)C12C` (configuration not stated) the T/C (dose: 50.0 mg/kg/injection, schedule: Q01DX009 (ip), vehicle: gum acacia) was 99 % of control and 102 % of control, the T/C (dose: 100.0 mg/kg/injection, schedule: Q01DX009 (ip), vehicle: gum acacia) was 102 % of control and 104 % of control and the T/C (dose: 200.0 mg/kg/injection, schedule: Q01DX009 (ip), vehicle: gum acacia) was 92 % of control and 93 % of control.
For `Nc1nc2[nH]c(=O)[nH]c(=O)c2[nH]1`, the T/C (dose: 50.0 mg/kg/injection, schedule: Q01DX005 (ip), vehicle: saline with Tween-80) was 100 % of control, the T/C (dose: 100.0 mg/kg/injection, schedule: Q01DX005 (ip), vehicle: saline with Tween-80) was 102 % of control and the T/C (dose: 200.0 mg/kg/injection, schedule: Q01DX005 (ip), vehicle: saline with Tween-80) was 109 % of control.
In the case of `N=Nc1c(OC(=O)Nc2ccccc2)[nH]c2ccccc12`, the T/C [2] is reported as 90 % of control, the T/C [3] is reported as 90 % of control and the T/C (dose: 200.0 mg/kg/injection, schedule: Q01DX005 (ip), vehicle: Klucel (hydroxypropylcellulose) (HPC)) is reported as 87 % of control.
With `CC12CCC(O)CC1CCC1C2C(O)CC2(C)C1CCC2(C)O` (configuration not stated) the T/C (dose: 100.0 mg/kg/injection, schedule: Q04DX003 (ip), vehicle: alcohol) was 105 % of control, the T/C (dose: 200.0 mg/kg/injection, schedule: Q04DX003 (ip), vehicle: alcohol) was 90 % of control and the T/C (dose: 400.0 mg/kg/injection, schedule: Q04DX003 (ip), vehicle: alcohol) was 115 % of control.
With `O=C(C1CO1)C(Cl)(Cl)Cl` (configuration not stated) the T/C (dose: 3.12 mg/kg/injection, schedule: Q01DX001 (ip), vehicle: saline) was 107 % of control, the T/C (dose: 6.25 mg/kg/injection, schedule: Q01DX001 (ip), vehicle: saline) was 107 % of control and the T/C (dose: 12.5 mg/kg/injection, schedule: Q01DX001 (ip), vehicle: saline) was 116 % of control. The T/C (dose: 25.0 mg/kg/injection, schedule: Q01DX001 (ip), vehicle: saline) was 120 % of control and 122 % of control, the T/C (dose: 50.0 mg/kg/injection, schedule: Q01DX001 (ip), vehicle: saline) was 113 % of control and the T/C (dose: 100.0 mg/kg/injection, schedule: Q01DX001 (ip), vehicle: saline) was 111 % of control.
With `C[n+]1c2cc(N)ccc2cc2ccc(N)cc21` the T/C (dose: 3.12 mg/kg/injection, schedule: Q01DX005 (ip), vehicle: suspension in saline) was 121 % of control, the T/C (dose: 6.25 mg/kg/injection, schedule: Q01DX005 (ip), vehicle: suspension in saline) was 117 % of control and the T/C (dose: 6.25 mg/kg/injection, schedule: Q01DX009 (ip), vehicle: saline) was 153 % of control. For the same compound, the T/C (dose: 12.5 mg/kg/injection, schedule: Q01DX009 (ip), vehicle: saline) was 164 % of control.
In the case of `CN=C(N)c1ccc(N=C(N)c2ccc(-c3ccc(C(N)=Nc4ccc(C(N)=NC)cc4)cc3)cc2)cc1`, the T/C (dose: 18.0 mg/kg/injection, schedule: Q01DX009 (ip), vehicle: saline) is reported as 154 % of control, the T/C (dose: 625.0 micrograms/kg/injection, schedule: Q01DX009 (ip), vehicle: saline with Tween-80) is reported as 91 % of control and the T/C (dose: 1250.0 micrograms/kg/injection, schedule: Q01DX009 (ip), vehicle: saline with Tween-80) is reported as 108 % of control. For the same compound, the T/C (dose: 2500.0 micrograms/kg/injection, schedule: Q01DX009 (ip), vehicle: saline with Tween-80) was 108 % of control.
